# Publication PMC11220790 (Molecular Pharmaceutics, 2024)
# Like-named read-outs stand apart in the source and are kept apart here.
# How the values were obtained:
# [1] = Solid-state photodegradation test (black UV lamp chamber); conditions: for stability, % 2-AZA found / stability, % DTIC found: after 15 days in photostability chamber
# [2] = Intrinsic dissolution, rotating disk apparatus; assay type: physicochemical; conditions: for IDR (intrinsic dissolution rate) pH 6.8: phosphate buffer pH 6.8, 37.0 ± 0.5 °C, 100 rpm
# Procedure: Intrinsic dissolution tests were carried out in triplicate using a rotating disk dissolution apparatus. […] The attachments containing the disks were immersed into 500 mL of phosphate buffer, pH 6.8, medium preheated at 37.0 ± 0.5 °C with the metallic rod rotating at 100 rpm.
# [3] = Photostability in aqueous media (DTIC degradation / 2-AZA formation kinetics); assay type: physicochemical; conditions: for kg, photogeneration rate constant for 2-AZA: 5 mM solution, phosphate buffer pH 6.8, UV irradiation 5 h
# Procedure: The mobile phase consisted of a mixture of 0.1% (v/v) aqueous formic acid solution (A) and acetonitrile (B), in a gradient elution mode (0.0–2.5 min: 0% B; 2.5–4.0 min: 0–6% B; 4.0–5.0 min: 6–0% B; and 5.0–7.0 min: 0% B), delivered at a flow rate of 0.8 mL min^–1. […] The method validation followed the ICH Q2 (R2) guideline.[31] The parameters selectivity, linearity, precision, accuracy, and limits of quantitation and detection were evaluated.
# A triplicate of freshly prepared solutions at a concentration of 5 mM has been placed into clear glass vials and arranged at 30 cm from a black UV lamp (300 mm, 15 W) to be photoirradiated for 5 h.
# [4] = Solid-state stability under accelerated degradation conditions (40 °C, 75% RH)
# [5] = Thermal analysis (DSC and TG); assay type: physicochemical
# Procedure: Thermogravimetric (TG) experiments were performed on a Shimadzu DTG-60 thermobalance, placing approximately 2.0 ± 0.2 mg of each sample in alumina pans and then heating at 10 °C min^–1 under a nitrogen flow (50 mL min^–1) from 25 to 600 °C. Differential scanning calorimetry (DSC) curves were obtained using a Shimadzu DSC-60 instrument. The samples (1.0 ± 0.2 mg) were placed in aluminum pans and heated at a constant rate of 10 °C min^–1 under a nitrogen flow (50 mL min^–1). According to TG data, the DSC measurements have been conducted until the degradation temperature of each compound. Shimadzu TA-60 software was employed in the data analysis.
# [6] = pKa and ΔpKa between DTIC and coformers; conditions: between DTIC and the coformer, Table S4
# [7] = weak base; cited from earlier work
# [8] = physchem; conditions: 37 °C, thermodynamic from solid
# [9] = freshly prepared (initial) solid sample
# [10] = solid, after 90 days at 40 °C and 75% RH
"stability, % 2-AZA found [1]","stability, % DTIC found [1]",increase of IDR compared to DTIC ([2]; phosphate buffer pH 6.8),IDR (intrinsic dissolution rate) pH 6.8 [2],"kg, photogeneration rate constant for 2-AZA [3]","stability, % DTIC found [4, 9]","stability, % DTIC found [4, 10]",IDR compared with DTIC (in words) ([2]; phosphate buffer pH 6.8),Tonset of DSC exothermic degradation peak [5],decomposition temperature (DSC exothermic degradation peak) [5],"TG: thermally stable up to / mass loss begins at ([5]; 10 °C min^–1, nitrogen flow)","Tonset of TG mass loss ([5]; 10 °C min^–1, nitrogen flow)",ΔpKa (pKa(base) − pKa(acid)) [6],reduction in the drug content during the photostability test ([1]; 15 days UV exposure),photodegradation in solution under UV radiation (in words) ([3]; low-pH and diluted solutions),"Tonset of DSC exothermic degradation peak ([5]; 10 °C min^–1, nitrogen flow)","decomposition temperature (DSC exothermic degradation peak) ([5]; 10 °C min^–1, nitrogen flow)","solubility at 24 h ([8]; HCl solution, pH 1.2, simulated gastric fluid)","solubility at 24 h ([8]; acetate buffer, pH 4.5, aqueous buffer)",SMILES,pKa [7]
1.7 ± 0.2%,98.4 ± 0.2%,approximately 7.3 fold,1.90 ± 0.06 mg cm^–2 min^–1,0.371 ± 0.02 mM h^–1,99.6 ± 0.4%,98.2 ± 0.4%,,,,,,,,,,,,,"CN(C)N=Nc1[nH]cnc1C(N)=O.O=C(O)C=CC(=O)O [DTIC-HMAL, Dacarbazine Hydrogen-Maleate Salt]",
1.8 ± 0.2%,97.0 ± 0.4%,,0.35 ± 0.01 mg cm^–2 min^–1,0.338 ± 0.03 mM h^–1,99.8 ± 0.4%,96.0 ± 0.5%,equivalent to those of DTIC,,,,,,,,,,,,"CN(C)N=Nc1nc[nH]c1C(N)=O.CN(C)N=Nc1nc[nH]c1C(N)=O.O.O.O.O.O=C(O)CC(O)(CC(=O)O)C(=O)O [DTIC-HCIT, Dacarbazine Hydrogen-Citrate Salt-Cocrystal]",
2.2 ± 0.4%,97.1 ± 0.3%,22 fold,5.58 ± 0.08 mg cm^–2 min^–1,0.386 ± 0.03 mM h^–1,100.1 ± 0.1%,99.9 ± 0.2%,,170.2 °C,175.0 °C,around 166 °C,161.7 °C,,,,,,,,"CN(C)N=Nc1[nH]cnc1C(N)=O.O=C(O)C(=O)O [DTIC-HOXA, Dacarbazine Hydrogen-Oxalate Salt]",
,,,,,,,,,,,,1.4,,,,,,,O=C(O)/C=C/C(=O)O [Fumaric acid],
1.1 ± 0.1%,97.3 ± 0.2%,~5.1 fold,1.31 ± 0.05 mg cm^–2 min^–1,0.363 ± 0.02 mM h^–1,99.5 ± 0.3%,99.2 ± 0.2%,,172.1 °C,178.1 °C,around 163 °C,159.4 °C,,,,,,,,"CN(C)N=Nc1nc[nH]c1C(N)=O.O=C(O)/C=C/C(=O)O [DTIC-H2FUM, Dacarbazine-Fumaric Acid Cocrystal]",
,94.4 ± 0.5%,,0.26 ± 0.02 mg cm^–2 min^–1,0.361 ± 0.04 mM h^–1,100.0 ± 0.2%,99.8 ± 0.3%,,,,208 °C,206.5 °C,,5.6%,Complete and rapid photodegradation,210.8 °C,215.5 °C,20.4 ± 0.2 mg/mL,3.4 ± 0.2 mg/mL,"CN(C)/N=N/c1[nH]cnc1C(N)=O [DTIC, Dacarbazine, reference compound]",4.4
,,,,,,,,,,,,2.5,,,,,,,O=C(O)/C=C\C(=O)O [Maleic acid],
